Results: patent US11312719B2, “9-substituted amino triazolo quinazoline derivatives as adenosine receptor antagonists, pharmaceutical compositions and their use” (Merck Sharp & Dohme Corp., priority 2018, dated 2022)

Experiments:
[1] = target: human A2B receptors (Homo sapiens (Human), UniProt P29275); test: A2B antagonism in cAMP cell-based assay (LANCE cAMP, HEK293); details: HEK293 cells expressing human A2B receptor
Method: (§1) Measurement of A2A and A2B Antagonism in cAMP Cell-Based Assay
(§2) The ability of compounds to antagonize human A2A and A2B adenosine receptors was determined using a kit to measure changes in intracellular cyclic AMP levels (LANCE cAMP 384 Kit, Perkin Elmer, Cat. No. AD0264). HEK293 cells recombinantly expressing either human A2A or A2B receptors, previously frozen in Recovery Medium (Life Technologies, Cat. No. 12648-010) were thawed and diluted into stimulation buffer (HBSS (Hyclone SH 30268.01), 5 mM HEPES (Gibco 15630-106), 200 nM rolipram (Tocris, Cat. No. 0905), and 1.5% (V/v) BSA stabilizer (kit component). The cell suspension was centrifuged at 200×g for 10 min and then resuspended in stimulation buffer, supplemented with a 1:10 000 dilution of Alexa Fluor 647 anti-cAMP antibody, to a density of 6.0×10^5 cells/mL. A Labcyte Echo 550 acoustic dispenser was used to transfer up to 25 nL of test compound dissolved in DMSO into the wells of a dry Optiplate-384 plate (Perkin Elmer, Cat. No. 6008289). All subsequent liquid additions were performed using a multichannel pipettor. Next, 5 μL of the cell suspension was added to the wells of the Optiplate-384 and incubated for 30 min. at 37° C. and 5% CO2 in a humidified environment. After this time 5 μL of either 300 nM or 600 nM adenosine (Sigma Cat. No. A9251) for A2A and A2B respectively was added and incubated for 30 minutes at 37° C. and 5% CO2 in a humidified environment. At this time detection mix was prepared by combining the LANCE Eu-W8044 labeled streptavidin and Biotin-cAMP in detection buffer according to the manufacturers protocol. 10 μL of the detection mix was added to each well of the Optiplate-384 which was covered with a plate seal and incubated under ambient conditions for 2 hours prior to reading the plate using an Envision (Perkin Elmer, Waltham, Mass.) multimode plate reader. Data was normalized by defining minimal effect as stimulation in the presence of 0.25% (v/v) DMSO and maximal effect as stimulation in the presence of 1 μM ZM241385 (Cayman, Cat. No. 1036). Curve fitting of the percent effect data versus the log of compound concentration used a 4-parameter concentration response curve fitting algorithm to calculate IC50 values. Compound concentrations tested were 10,000, 3,333, 1,111, 370.4, 123.4, 41.2, 13.7, 4.6, 1.5 and 0.5 nM with 0.25% residual DMSO.

[2] = target: human A2A receptors (Homo sapiens (Human), UniProt P29274); test: A2A antagonism in cAMP cell-based assay (LANCE cAMP, HEK293); details: HEK293 cells expressing human A2A receptor
Method: as §1, §2

Sequence of human A2A receptors (P29274 whole entry): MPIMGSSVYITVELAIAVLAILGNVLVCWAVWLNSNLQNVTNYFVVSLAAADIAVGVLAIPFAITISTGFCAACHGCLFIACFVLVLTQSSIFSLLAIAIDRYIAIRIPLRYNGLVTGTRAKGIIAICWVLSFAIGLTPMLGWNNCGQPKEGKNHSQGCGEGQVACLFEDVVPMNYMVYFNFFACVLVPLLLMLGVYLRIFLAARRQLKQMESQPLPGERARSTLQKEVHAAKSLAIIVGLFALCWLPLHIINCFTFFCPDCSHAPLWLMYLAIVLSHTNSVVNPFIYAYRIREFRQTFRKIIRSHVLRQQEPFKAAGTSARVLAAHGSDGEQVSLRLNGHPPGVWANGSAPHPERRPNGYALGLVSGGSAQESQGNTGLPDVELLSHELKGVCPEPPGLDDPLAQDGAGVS
Sequence of human A2B receptors (P29275 whole entry): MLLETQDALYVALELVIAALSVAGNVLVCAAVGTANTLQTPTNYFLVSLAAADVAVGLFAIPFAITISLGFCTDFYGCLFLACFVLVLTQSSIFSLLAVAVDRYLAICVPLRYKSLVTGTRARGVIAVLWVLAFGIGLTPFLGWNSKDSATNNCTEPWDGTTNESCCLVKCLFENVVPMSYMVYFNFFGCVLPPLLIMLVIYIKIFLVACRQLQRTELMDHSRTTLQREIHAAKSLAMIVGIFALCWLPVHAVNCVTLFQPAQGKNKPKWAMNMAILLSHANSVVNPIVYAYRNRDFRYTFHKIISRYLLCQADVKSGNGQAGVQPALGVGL

| SMILES | IC50 [1] [nM] | IC50 [2] [nM] |
| --- | --- | --- |
| COc1cc(F)cc2c1nc(N)n1nc(C3CC(C)CN(c4cnn(CC(C)(C)O)c4C)C3)nc21 (single isomer, unassigned) [Example 173, 1-(4-((3R,5S or 3S,5R)-3-(5-amino-9-fluoro-7-methoxy-[1,2,4]triazolo[1,5-c]quinazolin-2-yl)-5-methylpiperidin-1-yl)-5-methyl-1H-pyrazol-1-yl)-2-methylpropan-2-ol] | 2020 | 20.7 |
| COc1cc(F)cc2c1nc(N)n1nc(C3CC(C)CN(c4cnn(CC(C)(C)O)c4C)C3)nc21 (single isomer, unassigned) [Example 174, 1-(4-((3S,5R or 3R,5S)-3-(5-amino-9-fluoro-7-methoxy-[1,2,4]triazolo[1,5-c]quinazolin-2-yl)-5-methylpiperidin-1-yl)-5-methyl-1H-pyrazol-1-yl)-2-methylpropan-2-ol] | 30.7 | 0.6 |
| CC1CC(c2nc3c4cc(F)cc(F)c4nc(N)n3n2)CN(c2cnn(CC(C)(C)O)c2)C1 (single isomer, unassigned) [Example 181, 1-(4-((3S,5S or 3R,5R)-3-(5-amino-7,9-difluoro-[1,2,4]triazolo[1,5-c]quinazolin-2-yl)-5-methylpiperidin-1-yl)-1H-pyrazol-1-yl)-2-methylpropan-2-ol] | 5100 | 16 |
| CC1CC(c2nc3c4cc(F)cc(F)c4nc(N)n3n2)CN(c2cnn(CC(C)(C)O)c2)C1 (single isomer, unassigned) [Example 182, 1-(4-((3R,5R or 3S,5S)-3-(5-amino-7,9-difluoro-[1,2,4]triazolo[1,5-c]quinazolin-2-yl)-5-methylpiperidin-1-yl)-1H-pyrazol-1-yl)-2-methylpropan-2-ol] | > 10000 | 362 |
| CCC(C)(O)Cn1cc(N2CCC[C@@H](c3nc4c5cc(F)c(OC)cc5nc(N)n4n3)C2)cn1 (single isomer, unassigned) [Example 183, (R or S)-1-(4-((R)-3-(5-amino-9-fluoro-8-methoxy-[1,2,4]triazolo[1,5-c]quinazolin-2-yl)piperidin-1-yl)-1H-pyrazol-1-yl)-2-methylbutan-2-ol] | 90.6 | 2 |
| CCC(C)(O)Cn1cc(N2CCC[C@@H](c3nc4c5cc(F)c(OC)cc5nc(N)n4n3)C2)cn1 (single isomer, unassigned) [Example 184, (S or R)-1-(4-((R)-3-(5-amino-9-fluoro-8-methoxy-[1,2,4]triazolo[1,5-c]quinazolin-2-yl)piperidin-1-yl)-1H-pyrazol-1-yl)-2-methylbutan-2-ol] | 346 | 4.9 |
| COc1cc(F)cc2c1nc(N)n1nc([C@@H]3CCCN(c4cnn(C(C)C(C)O)c4)C3)nc21 (single isomer, unassigned) [Example 185, (2S,3S or 2R,3R)-3-(4-((R)-3-(5-amino-9-fluoro-7-methoxy-[1,2,4]triazolo[1,5-c]quinazolin-2-yl)piperidin-1-yl)-1H-pyrazol-1-yl)butan-2-ol] | 49.8 | 1.1 |
| COc1cc(F)cc2c1nc(N)n1nc([C@@H]3CCCN(c4cnn(C(C)C(C)O)c4)C3)nc21 (single isomer, unassigned) [Example 186, (2R,3R or 2S,3S)-3-(4-((R)-3-(5-amino-9-fluoro-7-methoxy-[1,2,4]triazolo[1,5-c]quinazolin-2-yl)piperidin-1-yl)-1H-pyrazol-1-yl)butan-2-ol] | 25.8 | 1 |
| COc1cc2nc(N)n3nc([C@@H]4CCCN(c5cnn(C(C)C(C)O)c5)C4)nc3c2cc1F (single isomer, unassigned) [Example 187, (2S,3S or 2R,3R)-3-(4-((R)-3-(5-amino-9-fluoro-8-methoxy-[1,2,4]triazolo[1,5-c]quinazolin-2-yl)piperidin-1-yl)-1H-pyrazol-1-yl)butan-2-ol] | 95.8 | 2.6 |
| COc1cc2nc(N)n3nc([C@@H]4CCCN(c5cnn(C(C)C(C)O)c5)C4)nc3c2cc1F (single isomer, unassigned) [Example 188, (2R,3R or 2S,3S)-3-(4-((R)-3-(5-amino-9-fluoro-8-methoxy-[1,2,4]triazolo[1,5-c]quinazolin-2-yl)piperidin-1-yl)-1H-pyrazol-1-yl)butan-2-ol] | 53.1 | 1.5 |
| COc1cc(F)cc2c1nc(N)n1nc([C@@H]3CCCN(c4cn(C(C)C(C)O)nc4C)C3)nc21 (single isomer, unassigned) [Example 190] | 55.9 | 0.8 |
| Cc1nn(C(C)C(C)O)cc1N1CCC[C@@H](c2nc3c4cc(F)cc(F)c4nc(N)n3n2)C1 (single isomer, unassigned) [Example 191, (2S,3S or 2R,3R)-3-(4-((R)-3-(5-amino-7,9-difluoro-[1,2,4]triazolo[1,5-c]quinazolin-2-yl)piperidin-1-yl)-3-methyl-1H-pyrazol-1-yl)butan-2-ol] | 92.4 | 0.9 |

Continued by falling IC50 [1], values first:

| IC50 [1] [nM] | IC50 [2] [nM] | SMILES |
| --- | --- | --- |
| 5340 | 54 | CC1CC(c2nc3c4cc(F)cc(F)c4nc(N)n3n2)CN(c2cnn(C(C)(C)CO)c2)C1 (single isomer, unassigned) [Example 180, 2-(4-((3R,5R or 3S,5S)-3-(5-amino-7,9-difluoro-[1,2,4]triazolo[1,5-c]quinazolin-2-yl)-5-methylpiperidin-1-yl)-1H-pyrazol-1-yl)-2-methylpropan-1-ol] |
| 3960 | 154 | Cc1nn(C(C)(C)CO)cc1N1CC(C)CC(c2nc3c4cc(F)cc(F)c4nc(N)n3n2)C1 (single isomer, unassigned) [Example 177, 2-(4-((3R,5S or 3S,5R)-3-(5-amino-7,9-difluoro-[1,2,4]triazolo[1,5-c]quinazolin-2-yl)-5-methylpiperidin-1-yl)-3-methyl-1H-pyrazol-1-yl)-2-methylpropan-1-ol] |
| 2000 | 30.2 | COc1cc(F)cc2c1nc(N)n1nc(C3CC(C)CN(c4cn(C(C)(C)CO)nc4C)C3)nc21 (single isomer, unassigned) [Example 175, 2-(4-((3R,5S or 3S,5R)-3-(5-amino-9-fluoro-7-methoxy-[1,2,4]triazolo[1,5-c]quinazolin-2-yl)-5-methylpiperidin-1-yl)-3-methyl-1H-pyrazol-1-yl)-2-methylpropan-1-ol] |
| 335 | 4 | CC1CC(c2nc3c4cc(F)cc(F)c4nc(N)n3n2)CN(c2cnn(C(C)(C)CO)c2)C1 (single isomer, unassigned) [Example 179] |
| 72.4 | 0.8 | Cc1nn(C(C)C(C)O)cc1N1CCC[C@@H](c2nc3c4cc(F)cc(F)c4nc(N)n3n2)C1 (single isomer, unassigned) [Example 192, (2R,3R or 2S,3S)-3-(4-((R)-3-(5-amino-7,9-difluoro-[1,2,4]triazolo[1,5-c]quinazolin-2-yl)piperidin-1-yl)-3-methyl-1H-pyrazol-1-yl)butan-2-ol] |
| 53.4 | 0.5 | COc1cc(F)cc2c1nc(N)n1nc([C@@H]3CCCN(c4cn(C(C)C(C)O)nc4C)C3)nc21 (single isomer, unassigned) [Example 189, (2S,3S or 2R,3R)-3-(4-((R)-3-(5-amino-9-fluoro-7-methoxy-[1,2,4]triazolo[1,5-c]quinazolin-2-yl)piperidin-1-yl)-3-methyl-1H-pyrazol-1-yl)butan-2-ol] |
| 11.5 | 0.6 | Cc1nn(C(C)(C)CO)cc1N1CC(C)CC(c2nc3c4cc(F)cc(F)c4nc(N)n3n2)C1 (single isomer, unassigned) [Example 178, 2-(4-((3S,5R or 3R,5S)-3-(5-amino-7,9-difluoro-[1,2,4]triazolo[1,5-c]quinazolin-2-yl)-5-methylpiperidin-1-yl)-3-methyl-1H-pyrazol-1-yl)-2-methylpropan-1-ol] |
| 10.2 | 0.9 | COc1cc(F)cc2c1nc(N)n1nc(C3CC(C)CN(c4cn(C(C)(C)CO)nc4C)C3)nc21 (single isomer, unassigned) [Example 176, 2-(4-((3S,5R or 3R,5S)-3-(5-amino-9-fluoro-7-methoxy-[1,2,4]triazolo[1,5-c]quinazolin-2-yl)-5-methylpiperidin-1-yl)-3-methyl-1H-pyrazol-1-yl)-2-methylpropan-1-ol] |
